Measurements: US20070203225A1, “METHOD OF INCREASING ENDOGENOUS ADIPONECTIN PRODUCTION AND LEPTIN PRODUCTION” (priority 2001, published 2007)
“Also recorded” adds a separate entry of the source.

Assays:
cultured rat adipocytes = test: Adiponectin secretion by isolated cultured rat adipocytes over 96 h; assay type: cell-based
Description: Several studies have reported that thiazolidenediones (TZDs), agonists of PPARγ, increase adiponectin expression and circulating levels in animals (Maeda, 2001; Yamauchi, 2001a; Ye, 2003). TZD (10 μM Troglitazone) stimulated of adiponectin secretion from cultured rat adipocytes from 3 different depots (n=6). Mesenteric fat produced the largest amount of adiponectin over 96 hours in culture. (FIG. 5A). Adiponectin secretion from both the control- and TZD-treated adipocytes was well correlated with the glucose utilization (control, r=0.79; p<0.001); (TZD-treated, r=0.84, p=<0.0001, FIG. 5B) showing that, similar to leptin production, glucose metabolism also is involved in the regulation of adiponectin production by adipocytes.
Insulin increased adiponectin production from 3 different fat depots, however as in the experiments with troglitazone, the mesenteric depot produced the most adiponectin (FIG. 6B). Like leptin, both basal and insulin-stimulated adiponectin secretion was highly correlated to glucose utilization (r=0.91, p<0.0001) (FIG. 6C), and inversely related to the proportion of glucose metabolized to lactate (r=−0.81, p<0.0001) (FIG. 6D).
Also paralleling the regulation of leptin, adiponectin secretion by isolated cultured adipocytes was increased during 96 h culture by inhibitors of PDH-K. DTNB (100 μM) increased adiponectin secretion by 40% (p<0.03, n=6, FIG. 7A). DCA (2 mM) increased adiponectin secretion by 23% (p<0.025, n=6, FIG. 7B). The increase in adiponectin induced by DTNB was highly correlated with glucose utilization (r=0.95, p<0.004). Furthermore in adipocytes transfected with antisense directed at PDH-K, adiponectin secretion was stimulated by 24.3±8.4%, p<0.05, n=7, FIG. 7C).
Cell isolation/preparation: Adipocytes are prepared from epididymal fat pads from male Sprague-Dawley rats weighing 300-600 g. Epididymal fat depots are resected from halothane anesthetized rats under aseptic conditions and adipocytes are isolated by collagenase digestion by the Rodbell method (Rodbell M. Metabolism of isolated fat cells. I. Effects of hormones on glucose metabolism and lipolysis. J Biol Chem. 1964; 239: 375-380), with minor modifications as previously described (Mueller W M, Gregoire F M, Stanhope K L, Mobbs C V, Mizuno T M, Warden C H, Stem J S, Havel P J. Evidence that glucose metabolism regulates leptin secretion from isolated adipocytes. Endocrinology 139: 551-558, 1998; Mueller W M, Stanhope K L, Gregoire F, Evans J L, Havel P J. Effects of metformin and vanadium on leptin secretion from cultured rat adipocytes. Obesity Res. 8: 530-539, 2000; Medina E A, Stanhope K L, Mizuno T M, Mobbs C V, Gregoire F, Hubbard N E, Erickson K L, Havel P J. Effects of tumor necrosis factor alpha on leptin secretion and gene expression: relationship to changes of glucose metabolism in isolated rat adipocytes. Int J Obes Relat Metab Disord. 23: 896-903, 1999.). The isolated adipocytes are then incubated for 30 minutes at 37 C before being plated and cultured on Matrigel-coated plates.
Adipocyte Culture: Adipocytes are maintained in culture anchored to a basement membrane matrix (Matrigel, Becton Dickinson, Franklin Lakes, N.J.) or collagen from Cohesion Technologies, (Palo Alto, Calif.). […]

leptin promoter = test: Leptin promoter luciferase construct transfected into 3T3-L1 cells; assay type: cell-based

Row | Compound | adiponectin secretion, 96 hr total (cultured rat adipocytes; 1.6 nM insulin, control 179.9±35.3 ng, n=6) [ng] | effect on adiponectin secretion (in words) (cultured rat adipocytes; insulin (1.6 nM), 96 hour culture) | effect on activity of control plasmid (in words) (leptin promoter; insulin 10 nM, 2-DG 10 mg/dl) | increase of leptin promoter activity (leptin promoter; insulin 0.1 to 10 nM, n=2 each) | effect on leptin promoter activity (in words) (leptin promoter; insulin 0.1 to 10 nM, 2-DG 10 mg/dl on basal and insulin-stimulated (10 nM) activity) | increase of adiponectin secretion (cultured rat adipocytes; DTNB 100 μM, DCA 2 mM, 96 h culture, n=6) [%] | effect on adiponectin secretion (in words) (cultured rat adipocytes; PDH kinase inhibitors DTNB and DCA)
1 | insulin | 312.3 ± 44 | significant increase; also recorded: increases | unaffected | 3-6 fold | increases |  | 
2 | O=C(O)c1cc(SSc2ccc([N+](=O)[O-])c(C(=O)O)c2)ccc1[N+](=O)[O-] [DTNB, 5,5′-Dithiobis(2-nitrobenzoate)] |  |  |  |  |  | 40 | increase
